The results in this text go back to US7501425B1, “Bicyclic pyrimidines and bicyclic 3,4-dihydropyprimidines as inhibitors of cellular proliferation” (Warner Lambert Company, priority 1999, dated 2009).

Counter-ions that a name gives are not always drawn. A value given as a limit tells only on which side of the number the result lay.

On to `CCN(CC)CCOc1ccc(Nc2ncc3c(n2)N(CC)C(=O)N(c2cc(OC)cc(OC)c2)C3)cc1` (as salt: salt) (hydrate or solvate) [Example 53a, 7-[4-(2-Diethylamino-ethoxy)-phenylamino]-3-(3,5-dimethoxy-phenyl)-1-ethyl-3,4-dihydro-pyrimido[4,5-d]pyrimidin-2(1H)-one], for which the melting point (in general, the temperature of the solid-liquid transition) was in the range of 139 to 141 °C.
`CCN1C(=O)N(c2cc(OC)cc(OC)c2)Cc2cnc(SC)nc21` (hydrate or solvate) [Example 50a, 3-(3,5-Dimethoxy-phenyl)-1-ethyl-7-methylsulfanyl-3,4-dihydro-pyrimido[4,5-d]pyrimidin-2(1H)-one] yielded a melting point of 134 to 136 °C.
To `CCN(CC)CCCCNc1ncc2c(n1)N(CC)C(=O)N(c1cc(OC)cc(OC)c1)C2` (hydrate or solvate) [Example 53, 7-(4-Diethylamino-butylamino)-3-(3,5-dimethoxy-phenyl)-1-ethyl-3,4-dihydro-pyrimido[4,5-d]pyrimidin-2(1H)-one] belongs 83 to 85 °C; to `C[S+]([O-])c1ncc2c(n1)N(C1CCCC1)C(=O)NC2` (stereo not drawn) [Example 5, 1-Cyclopentyl-7-methanesulfinyl-3,4-dihydro-pyrimido[4,5-d]pyrimidin-2(1H)-one], 235 to 236 °C (dec.); to `CC(C)N1C(=O)NCc2cnc([S+](C)[O-])nc21` (stereo not drawn) [Example 6, 1-Isopropyl-7-methanesulfinyl-3,4-dihydro-pyrimido[4,5-d]pyrimidin-2(1H)-one], 218 to 219 °C (dec.).
For `COc1ccc(Nc2ncc3c(n2)N(C2CCCC2)C(=O)NC3)cc1` [Example 9, 1-Cyclopentyl-7-(4-methoxyphenylamino)-3,4-dihydro-pyrimido[4,5-d]pyrimidin-2(1H)-one], the melting point was 247 to 249 °C (dec.).
The result for `O=C1NCc2cnc(Nc3ccc(N4CCCCC4)cc3)nc2N1C1CCCC1` [Example 10, 1-Cyclopentyl-7-[4-(piperidin-1-yl)phenylamino]-3,4-dihydro-pyrimido [4,5-d]pyrimidin-2(1H)-one] reads 254 to 277 °C (dec.); that for `CN1CCN(c2ccc(Nc3ncc4c(n3)N(C3CCCC3)C(=O)NC4)cc2)CC1` [Example 11, 1-Cyclopentyl-7-[4-(4-methylpiperazin-1-yl)phenylamino]-3,4-dihydro-pyrimido[4,5-d]pyrimidin-2(1H)-one], 236 to 239 °C (dec.).
Take `CCN(CC)CCOc1ccc(Nc2ncc3c(n2)N(C2CCCC2)C(=O)NC3)cc1C` [Example 13, 1-Cyclopentyl-7-{3-methyl-4-[2-(diethylamino)ethoxy]phenylamino}-3,4-dihydro-pyrimido[4,5-d]pyrimidin-2(1H)-one]: the melting point lay in the range of 175 to 177 °C.
To `O=C1NCc2cnc(Nc3ccc(N4CCC(O)CC4)cc3)nc2N1C1CCCC1` [Example 15, 1-Cyclopentyl-7-[4-(4-hydroxypiperidin-1-yl)phenylamino]-3,4-dihydro-pyrimido [4,5-d]pyrimidin-2(1H)-one] belongs > 200 °C (dec.); to `O=C1NCc2cnc(Nc3ccc(N4CCCC(O)C4)cc3)nc2N1C1CCCC1` (stereo not drawn) [Example 16, 1-Cyclopentyl-7-[4-(3-hydroxypiperidin-1-yl)phenylamino]-3,4-dihydro-pyrimido[4,5-d]pyrimidin-2(1H)-one], > 200 °C (dec.); to `CC1CN(c2ccc(Nc3ncc4c(n3)N(C3CCCC3)C(=O)NC4)cc2)CC(C)N1` (stereo not drawn) [Example 18, 1-Cyclopentyl-7-[4-(3,5-dimethylpiperazin-1-yl)phenylamino]-3,4-dihydro-pyrimido[4,5-d]pyrimidin-2(1H)-one], > 200 °C (dec.).
On to `O=C1NCc2cnc(Nc3ccc(N4CCCCC4CO)cc3)nc2N1C1CCCC1` (stereo not drawn) [Example 19, 1-Cyclopentyl-7-[4-(2-hydroxymethylpiperidin-1-yl)phenylamino]-3,4-dihydro-pyrimido[4,5-d]pyrimidin-2(1H)-one], for which the melting point fell in the range of 220 to 221 °C.
To `O=C1NCc2cnc(Nc3ccc(N4CCC(CCCO)CC4)cc3)nc2N1C1CCCC1` [Example 20, 1-Cyclopentyl-7-{4-[4-(3-hydroxypropyl)piperidin-1-yl]phenylamino}-3,4-dihydro-pyrimido[4,5-d]pyrimidin-2(1H)-one] belongs over 230 °C.
Turning to `CC(C)N1C(=O)NCc2cnc(Nc3ccc(N4CCC(O)CC4)cc3)nc21` [Example 23, 7-[4-(4-Hydroxypiperidin-1-yl)phenylamino]-1-isopropyl-3,4-dihydro-pyrimido[4,5-d]pyrimidin-2(1H)-one], the melting point is > 120 °C (dec.).
The result for `CC(C)N1C(=O)NCc2cnc(Nc3ccc(N4CCC(N(C)C)CC4)cc3)nc21.O=C(O)C(F)(F)F` [Example 24, 7-{4-[4-(Dimethylamino)piperidin-1-yl]phenylamino}-1-isopropyl-3,4-dihydro-pyrimido[4,5-d]pyrimidin-2(1H)-one; compound with trifluoroacetic acid] reads 215 to 217 °C (dec.); that for `CC(C)N1C(=O)NCc2cnc(Nc3ccc(-n4cccn4)cc3)nc21.O=C(O)C(F)(F)F` [Example 25, 1-Isopropyl-7-[4-(pyrazol-1-yl)phenylamino]-3,4-dihydro-pyrimido[4,5-d]pyrimidin-2(1H)-one; compound with trifluoroacetic acid], 249 to 252 °C (dec.).
As to `CN1C(=O)NCc2cnc(Nc3ccc(N4CCC(N(C)C)CC4)cc3)nc21.O=C(O)C(F)(F)F` [Example 30, 7-{4-[4-(Dimethylamino)piperidin-1-yl]phenylamino}-1-methyl-3,4-dihydro-pyrimido[4,5-d]pyrimidin-2(1H)-one; compound with trifluoroacetic acid], the melting point is 190 to 191 °C (dec.).
`CN1CCN(c2ccc(Nc3ncc4cnc(=O)n(C5CCCC5)c4n3)cc2)CC1` [Example 32, 1-Cyclopentyl-7-[4-(4-methylpiperazin-1-yl)phenylamino]pyrimido-[4,5-d]pyrimidin-2(1H)-one]: the melting point was 220 to 225 °C (dec.).
To `O=c1ncc2cnc(Nc3ccc(N4CCC(O)CC4)cc3)nc2n1C1CCCC1` [Example 33, 1-Cyclopentyl-7-[4-(4-hydroxypiperidin-1-yl)phenylamino]pyrimido[4,5-d]pyrimidin-2(1H)-one] belongs > 185 °C (dec.); to `CCN(CC)CCOc1ccc(Nc2ncc3cnc(=O)n(C4CCCC4)c3n2)cc1C` [Example 34, 1-Cyclopentyl-7-{3-methyl-4-[2-(diethylamino)ethoxy]-phenylamino}pyrimido[4,5-d]pyrimidin-2(1H)-one], > 95 °C (dec.).
On to `O=c1ncc2cnc(Nc3ccc(N4CCCC(O)C4)cc3)nc2n1C1CCCC1` (stereo not drawn) [Example 35, 1-Cyclopentyl-7-[4-(3-hydroxypiperidin-1-yl)phenylamino]pyrimido[4,5-d]-pyrimidin-2(1H)-one], for which the melting point was > 135 °C (dec.).
As for `O=c1ncc2cnc(Nc3ccc(-n4cccn4)cc3)nc2n1C1CCCC1` [Example 36, 1-Cyclopentyl-7-[4-(pyrazol-1-yl)phenylamino]pyrimido[4,5-d]pyrimidin-2(1H)-one], the melting point is > 135 °C (dec.).
To `O=c1ncc2cnc(Nc3ccc(N4CCC(CCN5CCOCC5)CC4)cc3)nc2n1C1CCCC1` [Example 39] belongs > 140 °C (dec.).
